Literature values, collected in publication PMC5897141 (Journal of neurochemistry, 2018).

Legend:
σ1/2 receptors = conditions: ref Shiba et al. 2006, Kawamura et al. 2006; cited from earlier work
VAChT = conditions: NHP brain; ref Nishiyama et al. 2014; cited from earlier work

## Cc1cccc2c1C[C@@H](O)[C@H](N1CCN(c3ccccc3N)CC1)C2 (relative stereo) [[^11C](R,R)HAPT, (R,R)-trans-8-methyl-2-hydroxy-3-[4-[2-aminophenyl]-piperizinyl]tetralin, reference compound]
σ1/2 receptors
  selectivity for VAChT versus σ1/2 receptors: 10 fold
VAChT
  time-activity curves peak time post injection: ≤ 20 min
